Data published in patent US20210317113A1, “1,2,3-TRIAZOLE DERIVATIVES AND USES THEREOF” (Alxerion Biotech LLC, priority 2020, published 2021).

Tests used:
[1] = test system: Non-Small Lung Cancer Cells (NSLCs); assay: Trypan Blue Exclusion Test of cancer cell viability; type: cell-based; conditions: defined in text as concentration of derivative causing greater than 90% of the cells to die; read-out: Anti-Cancer Activity (Trypan Blue Exclusion Assay) IC50
Procedure: The ability of 1,2,3-triazole derivatives according to the disclosure to kill cancer cells can be measured, e.g., by Trypan Blue Exclusion Assay which measured cell death by starvation due to the presence of the derivative (see EXAMPLE 4). The results obtained using this assay with some representative 1,2,3-triazole derivatives according to the disclosure are shown below in Table 4.
The effect of Derivative 1 on cancer cell viability was determined using the Trypan Blue Exclusion Test (Stober (2001) (Curr. Protoc. Immunol., May; Appendix 3:Appendix 3B. doi: 10.1002/0471142735.ima03bs21). The viability of Non-Small Lung Cancer Cells (NSLCs) was assessed over a period of 15 days after the promotion of coagulation with or without 200 μM of 1,2,3-triazole derivative 1 and with or without 2% human plasma. Fresh 2% FBS medium corresponding to each condition was added every 3 days. Cell death was analyzed using Trypan blue staining. 2% FBS medium was used as control. Some representative results are shown in FIGS. 4A-4F.

[2] = test system: fibrinolysis mediated by tPA (plasminogen activation by tPA); assay: Fibrinolytic assay: one-step spectrophotometric clot lysis in human plasma; type: biochemical; conditions: concentration at which 50% of total fibrinolysis mediated by tPA is inhibited; human ACD plasma, clot triggered by TF, absorbance 340 nm; read-out: Anti-fibrinolytic (SERPIN) Activity IC50
Procedure: Fibrinolytic activity in human plasma was determined by a one-step spectrophotometric method (Gidron et al. (1978) J. Clin. Pathol. 31(1):54-57) with minor modifications (see EXAMPLE 2). In this method, fibrin clot formation in anticoagulant citrate dextrose (ACD) plasma samples obtained from healthy volunteers is triggered by tissue factor (TF) and can be quantified by spectrometry as a significant increase in basal plasma absorbance at 340 nm.
As shown in FIGS. 2A-2D, in the absence of tPA, plasma absorbance remains permanently elevated.
Fibrinolytic activity in human plasmas in the presence of derivatives according to the disclosure was determined by a one-step spectrophotometric method.
Fibrin clot formation in the anticoagulant acid citrate dextrose (ACD)-treated plasma obtained from healthy volunteers is triggered by tissue factor (TF) (Thromborel S, Siemens Healthineers) and quantifies by spectrophotometry at 340 nm (using a Molecular Devices SpectraMax® M2e Multimode Microplate Reader). When recombinant human Tissue Plasminogen Activator (tPA, final concentration of 5.2 μg/ml) is simultaneously added, fibrinolysis of the clot can be determined.
Fresh blood was extracted from healthy volunteers. ACD, to reach a 10% concentration, was instantly added to the extracted blood, to prevent any unwanted coagulation. After that, blood was centrifuged for 15 min at 1,000 g. Plasma was clearly separated from red blood cells. 3 mL aliquots of aspirated plasma were immediately frozen at −20° C.
4 mL of ddH2O was added to a vial of Thromborel S and mixed thoroughly for 2 min. and left at 4° C. 500 μL TF aliquots were used for each experiment.
Representative derivatives of the present disclosure (Nos. 1, 5, and 7) were diluted in DMSO (those with Boc) or ddH2O (those with HCl) to a final concentration of 10 mM. A solution containing 1 M Tris HCl, pH 7.5 (Fisher BioReagent) (Buffer A), 0.110 g of CaCl2) in 10 mL of ddH2O (Buffer B), and tPA (Abcam, 1.3 mg/mL added into the diluted derivative solution, final concentration in serum was 5.2 μg/mL), and the derivative was prepared in a total volume of 75 μL and added to untreated, flat, clear Costar® 96-well plates in triplicate. Absorbance at 340 nm at 37° C. for 30 min was recorded every 15 sec. The plates were shaken every 3 sec in between readings. Controls for basal plasma absorbance, basal coagulation absorbance and basal fibrinolytic activity absorbance were performed in every assay.
FIG. 2A show the results a control experiment displaying the ability of TF to cause fibrin clot formation in the absence and presence of t-PA. TF was able to cause fibrin clot formation evaluated as a significant increase of the basal plasma absorbance at 340 nm.

[3] = test system: Non-Small Lung Cancer Cells (NSLCs); assay: Cancer migration (wound healing) assay; type: cell-based; conditions: wound healing assay, dose-response curve; read-out: Anti-Cancer Activity (Inhibition of Cancer Cell Migration) IC50
Excerpt: The ability of 1,2,3-triazole derivatives according to the disclosure to inhibit cancer cell migration and proliferation in vitro can be measured, e.g., by a wound healing assay (Rodriguez et al., in Cell Migration: Developmental Methods and Protocols, Web et al., Guan ed. Humana Press 294, 23-29). This assay is based on the observation that, upon the creation of an artificial gap on a confluent cancer cell monolayer, the cells on the edge of the created gap will start migrating and proliferating until new cell-cell contacts are established (EXAMPLE 3).
Non-Small Lung Cancer Cells (NSLCs) migration rate was assessed in an in vitro wound healing assay. This assay is based on the observation that, upon the creation of an artificial gap on a confluent cell monolayer, the cells on the edge of the created gap will start migrating and proliferating until new cell-cell contacts are established.
A confluent cell layer is a prerequisite for starting this assay. Gap formation is done manually with a scrapper and cell proliferation and migration is determined recording a time-lapse video for 20 hr. with a time interval of 30 min. The microscopic pictures are manually analyzed for obtaining information about the proliferation and migration characteristics of the cultured cells and the image analysis detects the cell covered area.
NSLCs were cultured in Eagle's Minimum Essential Medium (ATCC-formulated medium, Catalog No. 30-2003) containing fetal bovine serum at 10% during several periods. Wound healing assays with supplemented medium containing 1,2,3-triazole derivatives were performed to evaluate the inhibitory effect on proliferation and migration of cancer cells.
In order to simulate as close as possible the in vivo cancer microenvironment, human plasma and calcium were added to the cell culture system to provide the hemostatic factors normally present in the cancer stroma. The previous day, cells were seeded with 10% FBS at a number that would provide 90% confluence the next day. On Day 0, a scratch (“a wound”) was performed in the middle of the well and the 10% FBS medium was replaced with 20% plasma, 20 mM calcium medium, with or without Derivative 1. 10% FBS medium was used as control in these experiments. “Wound healing” or closure of the scratch was assessed over a period of 4 days, and cell number in the wound area was quantified for each condition. Increasing amount of Derivative 1 (LTI6) was used to attain a dose-response curve.
The cell function effect of Derivative 1 was compared with Tranexamic Acid (TNA) and Caproic Acid (CA), commercially available and widely used anti-metastasis drugs.

| IC50 [1] [µM] | IC50 [2] [µM] | IC50 [3] [µM] | Compound |
| --- | --- | --- | --- |
| 670 | 290 | 450 | N=C(N)c1cn(C2CCC(N)CC2)nn1 (stereo not drawn) [Derivative 35] |
| 415 | 119 | 278 | N=C(N)c1cn(CCN)nn1 [Derivative 36] |
| 1100 | 500 | 820 | O=c1[nH]c(-c2cn(C3CCNCC3)nn2)no1 [compound 9, 3-(1-(piperidin-4-yl)-1H-1,2,3-triazol-4-yl)-1,2,4-oxadiazol-5(4H)-one] |
| 110 | 25 | 65 | O=c1[nH]nc(-c2cn(C3CCNCC3)nn2)o1 [compound 12, 5-(1-(piperidin-4-yl)-1H-1,2,3-triazol-4-yl)-1,3,4-oxadiazol-2(3H)-one] |

The next lines start with the compound.

| Compound | IC50 [1] [µM] | IC50 [2] [µM] | IC50 [3] [µM] |
| --- | --- | --- | --- |
| NCCn1ccnn1 [Derivative 32] | 101 | 35 | 101 |
| N=C(N)c1cn(C2CCNCC2)nn1 [Derivative 33] | 184 | 29 | 82 |
| N=C(N)c1cn(CCCN)nn1 [Derivative 34] | 350 | 101 | 220 |
